{
  "source": "ChEMBL document CHEMBL1138634",
  "about": "“Topological modeling of lipophilicity, diuretic activity, and carbonic inhibition activity of benzene sulfonamides: a molecular connectivity approach” (Bioorg Med Chem Lett, 2004)",
  "key": {"[1]": {"test": "Diuretic activity was determined", "format": "ADME, Urine"}, "[2]": {"test": "Inhibitory activity against carbonic anhydrase"}},
  "data": [
    {"smiles": "NS(=O)(=O)c1ccc(Cl)c(Cl)c1", "values": [
      {"measurement": "Log 1/C", "setting": "[1]", "value": 0.24},
      {"measurement": "Log Ki", "setting": "[2]", "value": -6.39}
    ]},
    {"smiles": "NS(=O)(=O)c1cccc([N+](=O)[O-])c1", "values": [
      {"measurement": "Log 1/C", "setting": "[1]", "value": 0.67},
      {"measurement": "Log Ki", "setting": "[2]", "value": -5.88}
    ]},
    {"smiles": "Cc1ccc(S(N)(=O)=O)cc1", "note": "[P-TOLUENESULFONAMIDE]", "values": [
      {"measurement": "Log 1/C", "setting": "[1]", "value": 0.18},
      {"measurement": "Log Ki", "setting": "[2]", "value": -5.42}
    ]},
    {"smiles": "Cc1ccccc1S(N)(=O)=O", "values": [
      {"measurement": "Log 1/C", "setting": "[1]", "value": -0.3},
      {"measurement": "Log Ki", "setting": "[2]", "value": -4.79}
    ]},
    {"smiles": "CC(=O)c1ccc(S(N)(=O)=O)cc1", "values": [
      {"measurement": "Log 1/C", "setting": "[1]", "value": 0.39},
      {"measurement": "Log Ki", "setting": "[2]", "value": -5.95}
    ]},
    {"smiles": "NS(=O)(=O)c1ccc(Cl)c([N+](=O)[O-])c1", "values": [
      {"measurement": "Log 1/C", "setting": "[1]", "value": 0.32},
      {"measurement": "Log Ki", "setting": "[2]", "value": -6.76}
    ]},
    {"smiles": "Cc1cccc(S(N)(=O)=O)c1", "values": [
      {"measurement": "Log 1/C", "setting": "[1]", "value": 0.17},
      {"measurement": "Log Ki", "setting": "[2]", "value": -5.3}
    ]},
    {"smiles": "Nc1ccc(S(N)(=O)=O)cc1", "note": "[SULFANILAMIDE]", "values": [
      {"measurement": "Log 1/C", "setting": "[1]", "value": -0.3}
    ]},
    {"smiles": "N#Cc1ccc(S(N)(=O)=O)cc1", "values": [
      {"measurement": "Log 1/C", "setting": "[1]", "value": 1},
      {"measurement": "Log Ki", "setting": "[2]", "value": -5.95}
    ]},
    {"smiles": "NS(=O)(=O)c1ccc(Cl)cc1", "note": "[P-CHLOROBENZENESULFONAMIDE]", "values": [
      {"measurement": "Log Ki", "setting": "[2]", "value": -5.72}
    ]},
    {"smiles": "NS(=O)(=O)c1ccccc1[N+](=O)[O-]", "values": [
      {"measurement": "Log 1/C", "setting": "[1]", "value": -0.3},
      {"measurement": "Log Ki", "setting": "[2]", "value": -5.07}
    ]},
    {"smiles": "NS(=O)(=O)c1ccc([N+](=O)[O-])c(C(F)(F)F)c1", "values": [
      {"measurement": "Log 1/C", "setting": "[1]", "value": 0.57},
      {"measurement": "Log Ki", "setting": "[2]", "value": -6.85}
    ]},
    {"smiles": "NS(=O)(=O)c1ccccc1", "note": "[BENZENESULFONAMIDE]", "values": [
      {"measurement": "Log 1/C", "setting": "[1]", "value": 0.13},
      {"measurement": "Log Ki", "setting": "[2]", "value": -5.21}
    ]},
    {"smiles": "NS(=O)(=O)c1cccc(Cl)c1", "values": [
      {"measurement": "Log 1/C", "setting": "[1]", "value": 0.29},
      {"measurement": "Log Ki", "setting": "[2]", "value": -5.63}
    ]},
    {"smiles": "NS(=O)(=O)c1ccc(Br)cc1", "values": [
      {"measurement": "Log 1/C", "setting": "[1]", "value": 0.26},
      {"measurement": "Log Ki", "setting": "[2]", "value": -5.92}
    ]},
    {"smiles": "NS(=O)(=O)c1ccccc1Cl", "values": [
      {"measurement": "Log 1/C", "setting": "[1]", "value": -0.3},
      {"measurement": "Log Ki", "setting": "[2]", "value": -5.52}
    ]},
    {"smiles": "COc1ccc(S(N)(=O)=O)cc1", "values": [
      {"measurement": "Log Ki", "setting": "[2]", "value": -5.34}
    ]},
    {"smiles": "CNc1ccc(S(N)(=O)=O)cc1", "values": [
      {"measurement": "Log 1/C", "setting": "[1]", "value": -0.03},
      {"measurement": "Log Ki", "setting": "[2]", "value": -4.87}
    ]}
  ]
}
